Ends that are not written are not given here.
Tests used:
GPNMB-positive cells = experiment: Analysis of Gpnmb-dependent luciferase activity (in vivo IVIS imaging); set-up: species or system Gpnmb-DTR mouse; conditions: Reference Example 1; HFD-fed Gpnmb-DTR mice, DT 50 μg/kg i.p. twice (12 and 14 weeks of age), 16 weeks of age; FIG. 1B
Description: Gpnmb-DTR mouse bred by feeding normal diet or HFD for 4 weeks, and Gpnmb-DTR mouse bred by feeding HFD for 4 weeks, and then injecting DT (50 μg/kg body weight) at 2-week intervals (12 weeks of age and 14 weeks of age) intraperitoneally twice while continuing to feed HFD (16 weeks of age) were subjected to in vivo luciferase imaging analysis using the IVIS imaging system (Perkin Elmer). Mice were shaved ventrally, anesthetized with isoflurane (Wako Pure Chemicals Industries), and injected intraperitoneally with luciferin (150 mg/kg body weight) according to the manufacturer's instructions (Vivo-Glo; Promega). Luciferase activity was monitored 5 minutes after luciferin administration. Signals were analyzed using Living Image software (Perkin Elmer) to quantify luciferase activity. In FIG. 1B, “Before” is a Gpnmb-DTR mouse before HFD was fed (6 weeks of age), “HFD” is a Gpnmb-DTR mouse that was fed with HFD from 6 weeks of age and bred for 6 weeks (12 weeks of age), and “After DT” is a Gpnmb-DTR mouse that was bred by feeding HFD for 4 weeks and then injecting DT (50 μg/kg body weight) at 2-week intervals (12 weeks of age and 14 weeks of age) intraperitoneally twice while continuing to feed HFD (16 weeks of age). […]

GPNMB protein = experiment: Antibody titer by ELISA in plasma of vaccinated mice; assay type: in vivo, C57BL/6 mice; conditions: vs control vaccine group; KLH-bound peptide 20 μg with Titer Max Gold s.c. at 8 weeks of age, HFD-fed mice; plasma up to 6 weeks; FIG. 2A
Description: First, the antibody titers of the obtained two peptide vaccines were examined. Peptide vaccine 1 or peptide vaccine 2 (20 μg) and Titer Max Gold adjuvant (Titer Max USA) conjugated with KLH as carrier protein for induction of cytotoxic antibody were mixed in two syringes according to the manufacturer's protocol for emulsification. Subsequently, eight-week-old C57BL/6 mice fed with HFD from 4 weeks of age were subcutaneously injected with KLH-binding antigen peptide (20 μg) with a Titer Max Gold adjuvant to induce cytotoxic antibodies. C57BL/6 mice in the control group were subcutaneously injected with a KLH solution (hereinafter, referred to as “control vaccine”) mixed with Titer Max Gold in an equal amount. Plasma was collected from the tail vein of each mouse immediately after administration of the peptide vaccine and after 2, 4, and 6 weeks for antibody titer analysis. The antibody titer produced by injection of each peptide was measured by ELISA. Specifically, first, a 96-well microtiter plate (Nunc-Immuno MicroWell 96-well solid plate, Thermo Scientific) was coated using a carbonate buffer containing peptide vaccine 1 or peptide vaccine 2 bonded to bovine serum albumin (BSA). […] After reacting with the TMB substrate (Sigma-Aldrich, T0440), the optical density was measured at 450 nm (0D450) using a microtiter plate reader (iMark microplate reader, Bio-Rad).

[1] = Metabolic test (glucose tolerance test and insulin tolerance test); assay type: in vivo, C57BL/6 mice; conditions: HFD-fed mice, 16 weeks of age, s.c. vaccination at 8 weeks of age; compared to control vaccine; FIG. 2I
Description: Mice were bred individually from 1 week before the test. On the day of the glucose tolerance test (GTT), mice were fasted for 6 hours, followed by intraperitoneal injection of glucose at a dose of 1 g/kg (body weight) in the early afternoon. For the insulin tolerance test (ITT), mice were intraperitoneally administered with human insulin (1 U/kg (body weight)). After administration of glucose or insulin, tail venous blood was collected 0, 15, 30, 60 and 120 minutes later, and the blood glucose level was measured with a glucose analyzer (Sanwa Chemical Research Institute).
A metabolic test was performed using the same method as in “5.” of Reference Example 1, except that C57BL/6 mice (16 weeks of age) bred by feeding HFD from 4 weeks of age and administered with peptide vaccine 1, peptide vaccine 2, or control vaccine by subcutaneous injection at a time point of 8 weeks of age were used. In FIG. 2I, “Cont vaccine” is a C57BL/6 mouse administered with a control vaccine, “Gpnmb vaccine 1” is a C57BL/6 mouse administered with peptide vaccine 1, and “Gpnmb vaccine 2” is a C57BL/6 mouse administered with peptide vaccine 2.

Row | Substance | abdominal luciferase activity (Gpnmb-dependent) (GPNMB-positive cells) | antibody titer against GPNMB protein (GPNMB protein) | metabolic abnormality induced by HFD intake (glucose tolerance test and insulin tolerance test) [1]
1 | diphtheria toxin [DT, reference compound] | attenuated | – | –
2 | RSQHLRFPDR (also: KLH conjugate; listed as Mus musculus) [peptide vaccine 2, peptide of positions 150 to 159 of mouse GPNMB protein] | – | slightly higher | significantly improved

Source: patent publication US20220267374A1, “IMMUNITY INDUCER AND PHARMACEUTICAL COMPOSITION FOR PREVENTING OR TREATING AGING-RELATED DISEASES” (priority 2019, published 2022)
